Positions of bridges follow the written chain, without caps; N, C: chain ends. Non-standard residues stand in square brackets, D forms with d. Residues, ends and D or L forms follow the SMILES beside them. Trp(1-Me) = Cn1cc(C[C@H](N)C(=O)O)c2ccccc21; Sar = CNCC(=O)O
Columns and labels:
[1] = system: classical complement pathway; experiment: In vitro haemolysis assay (inhibition of classical complement pathway); format: cell-based, human; conditions: human serum, sensitized sheep red blood cells; Table 3, given as upper bounds; read-out: IC50, inhibition of hemolysis
How it was run: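 Compound dilutions preincubated 15 min at room temperature with diluted human serum (titrated per batch for 70-90% maximal haemolysis), then antibody-sensitized sheep RBC (10^7/well) added for 30 min at 37 °C in Tris/casein buffer, pH 7.4. Stopped with EDTA; haemolysis read at 405 nm; IC50 by 4PL fit.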

[2] = Solubility test at 10 mg/mL (visual inspection and light scattering); format: physicochemical; conditions: for Solubility, Condition 1: Acetate pH 4; for Solubility, Condition 2: Acetate pH 5; for Solubility, Condition 3: Phosphate pH 6; for Solubility, Condition 4: Phosphate pH 7; for Solubility, Condition 5: Phosphate pH 7.5
Protocol: The solubility of compounds was assessed by measuring light scattering over a pH interval from pH 4 to pH 7.5.
Compounds were dissolved in a stock solution of 20 mg/mL in H2O at pH 2.5 or pH 10. These stock solutions were diluted 1:1 with 200 mM buffered solution to reach a final solution of 10 mg/mL compound in 100 mM buffer. The 5 investigated conditions were (1) acetate pH 4.0, (2) acetate pH 5.0, (3) phosphate pH 6.0, (4) phosphate pH 7 and (5) phosphate pH 7.5.
Visual inspection included manually checking the 96 well plate for wells that are clear or non-clear. In addition to this a picture of the 96 well plate is taken.
Absorbance was measured at four wavelengths: 280 nm, 325 nm, 340 nm and 360 nm in an UV transparent 96 well microplate in a SpectraMax 190 microplate reader (Molecular Devices).
The criteria for this was a combination of visual inspection and light scattering not exceeding 0.1 AU, where values below 0.1 AU are good in visually clear samples.

Row | Compound | IC50 [1] [nM] | Solubility, Condition 1 [2] | Solubility, Condition 2 [2] | Solubility, Condition 3 [2] | Solubility, Condition 4 [2] | Solubility, Condition 5 [2]
1 | CC[C@H](C)[C@@H]1NC(=O)[C@@H](NC(=O)[C@H](Cc2ccccc2)NC(=O)[C@H](CCC(=O)O)NC(=O)[C@H](CO)NC(C)=O)CSSC[C@@H](C(=O)N(C)CC(=O)N[C@@H](CCC(=O)O)C(N)=O)NC(=O)[C@H](CCCNC(=N)N)NC(=O)[C@H](Cc2c[nH]cn2)NC(=O)[C@H](CCC(=O)O)NC(=O)CN(C)C(=O)[C@H](Cc2c[nH]c3ccccc23)NC(=O)[C@H](CC(=O)O)NC(=O)[C@H](CCC(N)=O)NC(=O)[C@H](Cc2cn(C)c3ccccc23)NC1=O [Compound 79, Ac-SEFC(1)I[1-Me-Trp]QDW[Sar]EHRC(1)[Sar]E-NH2] (Ac-SEFCI[Trp(1-Me)]QDW[Sar]EHRC[Sar]E-NH2; disulfide 4-14) | < 100 | − (“−” denotes lack of solubility at the given condition, as UV absorbance at 340 nm exceeds 0.1 AU and/or it is visibly turbid or contains particles) | − (“−” denotes lack of solubility at the given condition, as UV absorbance at 340 nm exceeds 0.1 AU and/or it is visibly turbid or contains particles) | + (“+” denotes solubility at the given condition, as determined by UV absorbance being less than 0.1 AU at 340 nm and the sample being clear when manually inspected) | + (“+” denotes solubility at the given condition, as determined by UV absorbance being less than 0.1 AU at 340 nm and the sample being clear when manually inspected) | + (“+” denotes solubility at the given condition, as determined by UV absorbance being less than 0.1 AU at 340 nm and the sample being clear when manually inspected)
2 | CC[C@H](C)[C@@H]1NC(=O)[C@@H](NC(=O)[C@H](Cc2ccccc2)NC(=O)[C@H](CCC(=O)O)NC(C)=O)CSSC[C@@H](C(=O)N(C)CC(=O)N[C@@H](CCC(=O)O)C(=O)N[C@@H](C)C(N)=O)NC(=O)[C@H](CCCNC(=N)N)NC(=O)[C@H](Cc2c[nH]cn2)NC(=O)[C@H](CCC(=O)O)NC(=O)CNC(=O)[C@H](Cc2c[nH]c3ccccc23)NC(=O)[C@H](CC(=O)O)NC(=O)[C@H](CCC(N)=O)NC(=O)[C@H](Cc2cn(C)c3ccccc23)NC1=O [Compound 80] (Ac-EFCI[Trp(1-Me)]QDWGEHRC[Sar]EA-NH2; disulfide 3-13) | < 100 | − (“−” denotes lack of solubility at the given condition, as UV absorbance at 340 nm exceeds 0.1 AU and/or it is visibly turbid or contains particles) | − (“−” denotes lack of solubility at the given condition, as UV absorbance at 340 nm exceeds 0.1 AU and/or it is visibly turbid or contains particles) | + (“+” denotes solubility at the given condition, as determined by UV absorbance being less than 0.1 AU at 340 nm and the sample being clear when manually inspected) | + (“+” denotes solubility at the given condition, as determined by UV absorbance being less than 0.1 AU at 340 nm and the sample being clear when manually inspected) | + (“+” denotes solubility at the given condition, as determined by UV absorbance being less than 0.1 AU at 340 nm and the sample being clear when manually inspected)
